Measured values published in patent publication US20250134909A1, “GEL COMPOSITION FOR PREVENTION OR TREATMENT OF ATOPIC DERMATITIS” (SHAPERON INC., priority 2021, published 2025).

System: atopic dermatitis-induced animal model by DNCB
Experiment: Thickness of the epidermis and dermis (H&E), DNCB-induced atopic dermatitis model
Format: in vivo, mice
Settings: 15th day, FIGS. 5 to 7; for dermal thickness: compared to the DNCB group and the normal Sham group; for skin epithelium thickness: compared to the DNCB group
Protocol: […] of a solution of 2,4-Dinitrochlorobenzene (DNCB) dissolved in acetone at a concentration of 1% or 2% was applied to the backs of mice with hair removed twice a day for 2 days, then on the 3rd day, a solution of […] containing 1% concentration of DNCB dissolved in acetone was applied twice daily, and additional applications of a solution of […] containing 1% concentration of DNCB dissolved in acetone or a solution diluted 10 times were applied twice daily on the shaved backs of mice until the 10th to 11th day starting from the day of the initial application of DNCB solution, to induce atopic dermatitis (FIG. 1).
To compare and confirm the therapeutic effects of 0.5% HY209_HA gel and 5% HY209_PEG gel on atopic dermatitis through measurement of the thickness of the epidermis and dermis in the atopic dermatitis-induced animal model of <Example 2>, each individual in the groups treated with 0.5% HY209_HA Gel, 5% HY209_PEG gel, Maxidex ointment, Eucrisa ointment, and Protopic ointment in <Experimental Example 1> had their atopic dermatitis-induced areas scarified on the 15th day from the induction of atopic dermatitis, and the Sham (untreated) group, where atopic dermatitis was not induced, and the DNCB group, which was not treated after the induction of atopic dermatitis, were also scarified on the 15th day.
After collecting skin tissues from each group of mice, the tissue samples were sliced and then fixed in 10% formalin solution for 24 hours, then rinsed with distilled water, processed into paraffin blocks, and sectioned into […] thickness slices, these slices were stained with Hematoxylin and Eosin (H&E), and observed under an optical microscope, and then the thickness of the epithelium and dermis were measured using image analysis software and analyzed using analysis software.

| Compound | dermal thickness | skin epithelium thickness |
| --- | --- | --- |
| C=CC[C@@H]1/C=C(\C)C[C@H](C)C[C@H](OC)[C@H]2O[C@@](O)(C(=O)C(=O)N3CCCC[C@H]3C(=O)O[C@H](/C(C)=C/[C@@H]3CC[C@@H](O)[C@H](OC)C3)[C@H](C)[C@@H](O)CC1=O)[C@H](C)C[C@@H]2OC [FK506, Tacrolimus] | recovered close to that of the normal Sham group | significantly reduced |
| N#Cc1ccc(Oc2ccc3c(c2)COB3O)cc1 [Crisaborole] | recovered close to that of the normal Sham group | significantly reduced |
